Experimental data from patent US11078170B2 (Assembly Biosciences, Inc., priority 2017, dated 2021).

test system: HBV viral production from HepAD38 cells; assay: Activity of test compounds on viral production from HepAD38 cells (viral load by qPCR of HBV core sequence in supernatant); format: cell-based; conditions: Hepatitis B virus, 120 h, 5 days incubation, HBV DNA in supernatant by qPCR, top concentration 10 μM, read-out: Viral Load EC50 Activity range
How it was run: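 HepAD38 cells, 50,000/well in tetracycline-free 2% FBS medium, treated 5 days at 37° C. with compound from 10 μM top concentration. HBV DNA in supernatant quantified by TaqMan qPCR of core sequence against DNA standards, relative to DMSO wells; CellTiter-Glo viability read in parallel. EC50/CC50 from four-parameter logistic fit.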

| Compound | EC50 [µM] |
| --- | --- |
| CN1[C@H](C(=O)Nc2ccc(F)c(Cl)c2)C[C@H](c2cnc(-c3ccccc3)s2)NS1(=O)=O [HBV-CSU-235-ISO-I, N-(3-Chloro-4-fluorophenyl)-2-methyl-5-(2-phenylthiazol-5-yl)-1,2,6-thiadiazinane-3-carboxamide 1,1-dioxide] | < 1 |
| CN1[C@H](C(=O)Nc2ccc(F)c(Cl)c2)C[C@H](c2cccc(Cl)c2)NS1(=O)=O [HBV-CSU-261-ISO-I, Cis-N-(3-Chloro-4-fluorophenyl)-5-(3-chlorophenyl)-2-methyl-1,2,6-thiadiazinane-3-carboxamide 1,1-dioxide] | < 1 |
| CC(C)n1cc(-c2csc([C@@H]3C[C@H](C(=O)Nc4ccc(F)c(Cl)c4)N(C)S(=O)(=O)N3)c2)cn1 [HBV-CSU-295-ISO-II, Cis-N-(3-chloro-4-fluorophenyl)-5-(4-(1-isopropyl-1H-pyrazol-4-yl)thiophen-2-yl)-2-methyl-1,2,6-thiadiazinane-3-carboxamide 1,1-dioxide] | 1 to 5 |
| Cc1nn(C)c(C)c1-c1csc([C@H]2C[C@@H](C(=O)Nc3ccc(F)c(Cl)c3)N(C)S(=O)(=O)N2)c1 [HBV-CSU-317-ISO-I, Cis-N-(3-chloro-4-fluorophenyl)-2-methyl-5-(4-(1,3,5-trimethyl-1H-pyrazol-4-yl)thiophen-2-yl)-1,2,6-thiadiazinane-3-carboxamide 1,1-dioxide] | < 1 |
| CN1[C@H](C(=O)Nc2ccc(F)c(Cl)c2)C[C@H](c2ncc(-c3cn(C)cn3)s2)NS1(=O)=O [HBV-CSU-276-ISO-I, (3S,5R)-N-(3-chloro-4-fluorophenyl)-2-methyl-5-(5-(1-methyl-1H-imidazol-4-yl)thiazol-2-yl)-1,2,6-thiadiazinane-3-carboxamide 1,1-dioxide] | < 1 |
| CN1[C@H](C(=O)Nc2ccc(F)c(Cl)c2)C[C@H](c2cc(-c3ccc(F)cn3)cs2)NS1(=O)=O (stereo in doubt) [HBV-CSU-243-ISO-II, Cis-N-(3-chloro-4-fluorophenyl)-5-(4-(5-fluoropyridin-2-yl)thiophen-2-yl)-2-methyl-1,2,6-thiadiazinane-3-carboxamide 1,1-dioxide] | < 1 |
| CN1[C@@H](C(=O)Nc2ccc(F)c(Cl)c2)C[C@@H](c2ncc(-c3c[nH]cn3)s2)NS1(=O)=O (stereo in doubt) [HBV-CSU-333-ISO-II, 5-(5-(1H-imidazol-4-yl)thiazol-2-yl)-N-(3-chloro-4-fluorophenyl)-2-methyl-1,2,6-thiadiazinane-3-carboxamide 1,1-dioxide] | 1 to 5 |
| CN1[C@@H](C(=O)Nc2ccc(F)c(Cl)c2)C[C@@H](c2ccc(-c3ncnn3C)s2)NS1(=O)=O [HBV-CSU-323-ISO-II, Cis-N-(3-Chloro-4-fluorophenyl)-2-methyl-5-(5-(1-methyl-1H-1,2,4-triazol-5-yl)thiophen-2-yl)-1,2,6-thiadiazinane-3-carboxamide 1,1-dioxide] | 1 to 5 |
| CN1C(C(=O)Nc2ccc(F)c(Cl)c2)CC(c2ncc(-c3ccccn3)s2)NS1(=O)=O (racemic) [HBV-CSU-176, Cis-N-(3-chloro-4-fluorophenyl)-2-methyl-5-(5-(pyridin-2-yl)thiazol-2-yl)-1,2,6-thiadiazinane-3-carboxamide 1,1-dioxide] | < 1 |
| Cc1cccc(NC(=O)C2CC(c3cccs3)NS(=O)(=O)N2C)c1 (racemic) [HBV-CSU-013, Cis-2-Methyl-5-(thiophen-2-yl)-N-(m-tolyl)-1,2,6-thiadiazinane-3-carboxamide 1,1-dioxide] | < 1 |
| CN1[C@H](C(=O)Nc2ccc(F)c(Cl)c2)C[C@@H](c2ccc(-c3cnn(C)c3)s2)NS1(=O)=O (racemic) [HBV-CSU-161-Trans (Rac), Trans-N-(3-chloro-4-fluorophenyl)-2-methyl-5-(5-(1-methyl-1H-pyrazol-4-yl)thiophen-2-yl)-1,2,6-thiadiazinane-3-carboxamide 1,1-dioxide] | 1 to 5 |
| [2H]C1C([2H])(c2ccc(-c3cn(C)cn3)s2)NS(=O)(=O)N(C)C1([2H])C(=O)Nc1ccc(F)c(Cl)c1 (stereo not drawn) [HBV-CSU-375, Cis-N-(3-Chloro-4-fluorophenyl)-2-methyl-5-(5-(1-methyl-1H-imidazol-4-yl)thiophen-2-yl)-1,2,6-thiadiazinane-3,4,5-d3-3-carboxamide 1,1-dioxide] | < 1 |
| CN1C(C(=O)Nc2ccc(C#N)cc2)CC(c2cccs2)NS1(=O)=O (stereo not drawn) [HBV-CSU-019, Cis-N-(4-cyanophenyl)-2-methyl-5-(thiophen-2-yl)-1,2,6-thiadiazinane-3-carboxamide 1,1-dioxide] | > 5 |
| CN1[C@@H](C(=O)Nc2ccc(F)c(Cl)c2)C[C@@H](c2ccc(Cc3ccccc3)s2)NS1(=O)=O [HBV-CSU-117-ISO-II, Cis-(5-benzylthiophen-2-yl)-N-(3-chloro-4-fluorophenyl)-2-methyl-1,2,6-thiadiazinane-3-carboxamide 1,1-dioxide] | 1 to 5 |
| COC(C)(C)CCN1[C@H](C(=O)Nc2ccc(F)c(Cl)c2)C[C@H](c2nccs2)NS1(=O)=O [HBV-CSU-083-ISO-II, Cis-N-(3-Chloro-4-fluorophenyl)-2-(3-methoxy-3-methylbutyl)-5-(thiazol-2-yl)-1,2,6-thiadiazinane-3-carboxamide 1,1-dioxide] | > 5 |
| COc1ccccc1C1CC(C(=O)Nc2ccc(F)c(Cl)c2)N(C)S(=O)(=O)N1 (centres unmarked) [HBV-CSU-215] | 1 to 5 |
| CN1[C@H](C(=O)Nc2ccc(F)c(Cl)c2)C[C@H](c2ccc(-c3cn[nH]c3)s2)NS1(=O)=O [HBV-CSU-244-ISO-I] | < 1 |
| COCCN1[C@@H](C(=O)Nc2ccc(F)c(Br)c2)C[C@@H](c2nccs2)NS1(=O)=O [HBV-CSU-059-ISO-I, Cis-N-(3-bromo-4-fluorophenyl)-2-(2-methoxyethyl)-5-(thiazol-2-yl)-1,2,6-thiadiazinane-3-carboxamide 1,1-dioxide] | > 5 |
| CN1[C@@H](C(=O)Nc2ccc(F)c(Cl)c2)C[C@@H](c2ccc(-c3cnco3)s2)NS1(=O)=O [HBV-CSU-269-ISO-II, Cis-N-(3-Chloro-4-fluorophenyl)-2-methyl-5-(5-(oxazol-5-yl)thiophen-2-yl)-1,2,6-thiadiazinane-3-carboxamide 1,1-dioxide] | 1 to 5 |
| CN1[C@@H](C(=O)Nc2cc(F)c(F)c(F)c2)C[C@@H](c2ccc(F)cc2)NS1(=O)=O [HBV-CSU-212-ISO-II, Cis-5-(4-Fluorophenyl)-2-methyl-N-(3,4,5-trifluorophenyl)-1,2,6-thiadiazinane-3-carboxamide 1,1-dioxide] | > 5 |
| CN1[C@H](C(=O)Nc2ccc(F)c(Cl)c2)C[C@H](c2cc(-c3ncnn3C)cs2)NS1(=O)=O [HBV-CSU-327-ISO-I, Cis-N-(3-Chloro-4-fluorophenyl)-2-methyl-5-(4-(1-methyl-1H-1,2,4-triazol-5-yl)thiophen-2-yl)-1,2,6-thiadiazinane-3-carboxamide 1,1-dioxide] | < 1 |
| O=C(Nc1ccc(F)c(Cl)c1)[C@H]1C[C@@H](c2nccs2)NS(=O)(=O)N1CCc1c[nH]nn1 [HBV-CSU-092-ISO-II, Cis-2-(2-(1H-1,2,3-Triazol-4-yl)ethyl)-N-(3-chloro-4-fluorophenyl)-5-(thiazol-2-yl)-1,2,6-thiadiazinane-3-carboxamide 1,1-dioxide] | > 5 |
| CN(C)CCN1[C@H](c2cccs2)C[C@H](C(=O)Nc2ccc(F)c(Cl)c2)N(C)S1(=O)=O [HBV-CSU-043-ISO-II, Cis-N-(3-chloro-4-fluorophenyl)-6-(2-(dimethylamino)ethyl)-2-methyl-5-(thiophen-2-yl)-1,2,6-thiadiazinane-3-carboxamide 1,1-dioxide] | > 5 |
| CN1[C@@H](C(=O)Nc2ccc(F)c(Cl)c2)C[C@@H](c2ncc(-c3cncn3C)s2)NS1(=O)=O [HBV-CSU-277-ISO-II, Cis-N-(3-Chloro-4-fluorophenyl)-2-methyl-5-(5-(1-methyl-1H-imidazol-5-yl)thiazol-2-yl)-1,2,6-thiadiazinane-3-carboxamide 1,1-dioxide] | > 5 |
| CN1C(C(=O)Nc2ccc(F)c(Cl)c2)CC(c2ccc(F)c(F)c2)NS1(=O)=O (racemic) [HBV-CSU-230, Cis-N-(3-Chloro-4-fluorophenyl)-5-(3,4-difluorophenyl)-2-methyl-1,2,6-thiadiazinane-3-carboxamide 1,1-dioxide] | < 1 |
| CN1C(C(=O)Nc2ccc(F)c(Cl)c2)CC(c2ccc(-c3ccc(C#N)c(F)c3)s2)NS1(=O)=O (racemic) [HBV-CSU-156, Cis-N-(3-chloro-4-fluorophenyl)-5-(5-(4-cyano-3-fluorophenyl)thiophen-2-yl)-2-methyl-1,2,6-thiadiazinane-3-carboxamide 1,1-dioxide] | < 1 |
| [2H]C1[C@]([2H])(C(=O)Nc2ccc(F)c(Cl)c2)N(C([2H])([2H])[2H])S(=O)(=O)N[C@]1([2H])c1ncc(-c2cn(C([2H])([2H])[2H])cn2)s1 (stereo in doubt) [HBV-CSU-339-ISO-II, Cis-N-(3-Chloro-4-fluorophenyl)-2-(methyl-d3)-5-(5-(1-(methyl-d3)-1H-imidazol-4-yl)thiazol-2-yl)-1,2,6-thiadiazinane-3,4,5-d3-3-carboxamide 1,1-dioxide] | 1 to 5 |
| CC(C)(C)OCCN1[C@@H](C(=O)Nc2ccc(F)c(Cl)c2)C[C@@H](c2nccs2)NS1(=O)=O (relative stereo) [HBV-CSU-071-ISO-II, Cis-2-(2-(tert-Butoxy)ethyl)-N-(3-chloro-4-fluorophenyl)-5-(thiazol-2-yl)-1,2,6-thiadiazinane-3-carboxamide 1,1-dioxide] | 1 to 5 |
| CN1C(C(=O)Nc2ccc(F)c(Cl)c2)CC(c2ccc(OC(F)F)cc2)NS1(=O)=O (racemic) [HBV-CSU-263, Cis-N-(3-Chloro-4-fluorophenyl)-5-(4-(difluoromethoxy)phenyl)-2-methyl-1,2,6-thiadiazinane-3-carboxamide 1,1-dioxide] | < 1 |
